From ChEMBL document CHEMBL1201862, “PubChem BioAssay data set” (2004)
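Interpolation was linear, between the two tested concentrations surrounding the appropriate level; five concentrations were tested over 48 hours in 96-well plates. GI50: concentration for 50% inhibition of growth.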 Calls of active or inactive are those of the source. No stated cut-off is given here; in the data, active = GI50 up to about 1.1 µM and inactive = higher.

Assays:
Experiment in all cases: inhibition of tumour cell growth, NCI panel, 48 h
UACC-62 = system: UACC-62
CAKI-1 = system: CAKI-1
HL-60 = system: HL-60
DU-145 = system: DU-145
SR = system: SR
HCT-15 = system: HCT-15
UO-31 = system: UO-31
NCI-H23 = system: NCI-H23
SW-620 = system: SW-620
HCC 2998 = system: HCC 2998
SF-295 = system: SF-295
MOLT-4 = system: MOLT-4
T47D = system: T47D
COLO 205 = system: COLO 205
Malme-3M = system: Malme-3M
LOX IMVI = system: LOX IMVI
SK-MEL-5 = system: SK-MEL-5
NCI-H226 = system: NCI-H226
A549 = system: A549
RXF 393 = system: RXF 393

Row | SMILES | GI50 (UACC-62) | GI50 (CAKI-1) | GI50 (HL-60) | GI50 (DU-145) | GI50 (SR) | GI50 (HCT-15) | GI50 (UO-31) | GI50 (NCI-H23) | GI50 (SW-620) | GI50 (HCC 2998) | GI50 (SF-295) | GI50 (MOLT-4) | GI50 (T47D) | GI50 (COLO 205) | GI50 (Malme-3M) | GI50 (LOX IMVI) | GI50 (SK-MEL-5) | GI50 (NCI-H226) | GI50 (A549) | GI50 (RXF 393)
1 | CCCCN(CCCC)CCC(O)c1cc2c(Cl)cc(Cl)cc2c2cc(C(F)(F)F)ccc12 (stereo not drawn) | 15 µM (inactive) | 12.2 µM (inactive) | 5.9 µM (inactive) | 10.3 µM (inactive) | 10.3 µM (inactive) | 5.4 µM | 4.2 µM (inactive) | 12.4 µM (inactive) | 11.3 µM (inactive) | 11.7 µM (inactive) | 12.4 µM (inactive) | 8.57 µM (inactive) | 12.8 µM (inactive) | 10.8 µM (inactive) | 16.4 µM (inactive) | 6.52 µM (inactive) | – | – | – | –
2 | COc1ccc(OC)c2c1C(=O)C(O)=C(Cl)C2=O | > 100 µM (inactive) | > 100 µM (inactive) | > 100 µM (inactive) | > 100 µM (inactive) | – | > 100 µM | > 100 µM (inactive) | > 100 µM (inactive) | > 100 µM (inactive) | > 100 µM (inactive) | > 100 µM (inactive) | > 100 µM (inactive) | > 100 µM (inactive) | > 100 µM (inactive) | > 100 µM (inactive) | > 100 µM (inactive) | > 100 µM (inactive) | > 100 µM (inactive) | > 100 µM (inactive) | > 100 µM (inactive)
3 | CN(C)CCCNC(=O)CCNC(=O)c1cc(NC(=O)c2cc(NC(=O)c3cc(NC(=O)c4nccn4C)cn3C)cn2C)cn1C | > 100 µM (inactive) | > 100 µM (inactive) | 18.8 µM (inactive) | > 100 µM (inactive) | – | > 100 µM | > 100 µM (inactive) | > 100 µM (inactive) | > 100 µM (inactive) | > 100 µM (inactive) | > 100 µM (inactive) | > 100 µM (inactive) | 31 µM (inactive) | 20 µM (inactive) | > 100 µM (inactive) | 21.9 µM (inactive) | > 100 µM (inactive) | > 100 µM (inactive) | > 100 µM (inactive) | > 100 µM (inactive)
4 | CCOC(=O)N(C)C(=C(F)F)C(F)(F)F | > 10 µM (inactive) | – | 20.4 µM (inactive) | 33.2 µM (inactive) | 3.95 µM (inactive) | 16.3 µM | 32.7 µM (inactive) | 20.5 µM (inactive) | 21.2 µM (inactive) | 20.6 µM (inactive) | 57.5 µM (inactive) | 21.7 µM (inactive) | 26.8 µM (inactive) | 21 µM (inactive) | 14.6 µM (inactive) | 23 µM (inactive) | 15.7 µM (inactive) | 19.2 µM (inactive) | 29 µM (inactive) | –
5 | Cc1ccc(S(=O)(=O)C2=Cc3ccccc3C2(O)c2ccccc2)cc1 (stereo not drawn) | – | – | 13.2 µM (inactive) | 34.8 µM (inactive) | 22.2 µM (inactive) | 32.7 µM | – | 37.2 µM (inactive) | 29.8 µM (inactive) | 10.4 µM (inactive) | 25.4 µM (inactive) | 29.2 µM (inactive) | 34.3 µM (inactive) | 24.5 µM (inactive) | – | 17.6 µM (inactive) | 16.6 µM (inactive) | 29.3 µM (inactive) | 32.2 µM (inactive) | –
6 | O=C(OCC1CCCN2CCCCC12)c1cccnc1 (stereo not drawn) | > 100 µM (inactive) | > 100 µM (inactive) | > 100 µM (inactive) | > 100 µM (inactive) | – | > 100 µM | > 100 µM (inactive) | > 100 µM (inactive) | > 100 µM (inactive) | > 100 µM (inactive) | > 100 µM (inactive) | > 100 µM (inactive) | > 100 µM (inactive) | > 100 µM (inactive) | > 100 µM (inactive) | > 100 µM (inactive) | > 100 µM (inactive) | > 100 µM (inactive) | > 100 µM (inactive) | > 100 µM (inactive)
7 | CC(C)(C)OC(=O)Cn1ncn(NC(=O)Cc2ccccc2)c1=O | > 10 µM (inactive) | > 10 µM (inactive) | – | > 10 µM (inactive) | > 10 µM (inactive) | > 10 µM | > 10 µM (inactive) | > 10 µM (inactive) | > 10 µM (inactive) | > 10 µM (inactive) | > 10 µM (inactive) | > 10 µM (inactive) | > 10 µM (inactive) | > 10 µM (inactive) | > 10 µM (inactive) | > 10 µM (inactive) | > 10 µM (inactive) | > 10 µM (inactive) | > 10 µM (inactive) | –
8 | CC(=O)N[C@@H](Cc1ccc(O)cn1)C(=O)NC1CCCCC1 | > 100 µM (inactive) | > 100 µM (inactive) | – | > 100 µM (inactive) | > 100 µM (inactive) | > 100 µM | > 100 µM (inactive) | > 100 µM (inactive) | > 100 µM (inactive) | > 100 µM (inactive) | > 100 µM (inactive) | > 100 µM (inactive) | > 100 µM (inactive) | > 100 µM (inactive) | – | > 100 µM (inactive) | > 100 µM (inactive) | > 100 µM (inactive) | > 100 µM (inactive) | –
9 | OC(CCN1CCN(CCOC(c2ccccc2)c2ccccc2)CC1)c1ccccc1 (stereo not drawn) | 11.5 µM (inactive) | 32 µM (inactive) | 16.7 µM (inactive) | 39.7 µM (inactive) | – | 18.5 µM | 24.7 µM (inactive) | 24.7 µM (inactive) | 31.1 µM (inactive) | 14.8 µM (inactive) | 20.1 µM (inactive) | – | 17.2 µM (inactive) | 14.5 µM (inactive) | 17.5 µM (inactive) | 19 µM (inactive) | 15.3 µM (inactive) | 27.9 µM (inactive) | 44.6 µM (inactive) | 19.9 µM (inactive)
10 | COC(=O)[C@H](Cc1ccccc1)NC(=O)N(CCC#N)CCCCN(CCC#N)C(=O)N[C@@H](Cc1ccccc1)C(=O)OC | > 100 µM (inactive) | > 100 µM (inactive) | – | > 100 µM (inactive) | – | > 100 µM | > 100 µM (inactive) | > 100 µM (inactive) | > 100 µM (inactive) | > 100 µM (inactive) | > 100 µM (inactive) | > 100 µM (inactive) | > 100 µM (inactive) | > 100 µM (inactive) | > 100 µM (inactive) | > 100 µM (inactive) | > 100 µM (inactive) | > 100 µM (inactive) | > 100 µM (inactive) | > 58.1 µM (inactive)
11 | COc1ccc(CCN(C)C(=O)CC(C#N)(c2ccccc2)c2ccc(OC)c(OC)c2)cc1OC (stereo not drawn) | > 100 µM (inactive) | > 100 µM (inactive) | > 100 µM (inactive) | > 100 µM (inactive) | – | > 100 µM | > 74.6 µM (inactive) | > 100 µM (inactive) | > 100 µM (inactive) | – | > 100 µM (inactive) | > 45.9 µM (inactive) | > 100 µM (inactive) | > 100 µM (inactive) | > 100 µM (inactive) | > 100 µM (inactive) | 98.4 µM (inactive) | > 100 µM (inactive) | > 100 µM (inactive) | > 86.5 µM (inactive)
12 | CCc1c(Cl)c(C)cc(O)c1Cl | 32.6 µM (inactive) | 74.1 µM (inactive) | 18.3 µM (inactive) | > 100 µM (inactive) | – | 17.8 µM | 23.7 µM (inactive) | 34.8 µM (inactive) | 20.6 µM (inactive) | 1.71 µM (inactive) | 33.1 µM (inactive) | 27.4 µM (inactive) | 26.8 µM (inactive) | 43.7 µM (inactive) | 30.1 µM (inactive) | 23.8 µM (inactive) | 15.3 µM (inactive) | 20.9 µM (inactive) | 44.4 µM (inactive) | 23.4 µM (inactive)
13 | O=C1OC(=O)C2CCCC3CCCC1C32 (stereo not drawn) | > 100 µM (inactive) | > 100 µM (inactive) | > 100 µM (inactive) | > 100 µM (inactive) | – | > 100 µM | > 100 µM (inactive) | > 100 µM (inactive) | > 100 µM (inactive) | > 100 µM (inactive) | > 100 µM (inactive) | > 100 µM (inactive) | > 100 µM (inactive) | > 100 µM (inactive) | > 100 µM (inactive) | > 100 µM (inactive) | > 100 µM (inactive) | > 100 µM (inactive) | > 100 µM (inactive) | > 100 µM (inactive)
14 | Nc1ncnc2c1ccn2COC(CO)CO | 37.4 µM (inactive) | > 100 µM (inactive) | 90.6 µM (inactive) | > 100 µM (inactive) | – | > 100 µM | > 100 µM (inactive) | > 100 µM (inactive) | > 100 µM (inactive) | > 100 µM (inactive) | > 100 µM (inactive) | 51.9 µM (inactive) | > 100 µM (inactive) | – | > 100 µM (inactive) | > 100 µM (inactive) | > 100 µM (inactive) | 46.2 µM (inactive) | > 100 µM (inactive) | 49.4 µM (inactive)
15 | CCN(CC)CCC(=O)/C=C/c1ccc(Cl)c(Cl)c1 | – | – | 0.302 µM (active) | > 10 µM (inactive) | 2.83 µM (inactive) | 3.66 µM | – | > 10 µM (inactive) | 2.55 µM (inactive) | 3.36 µM (inactive) | > 10 µM (inactive) | 3.01 µM (inactive) | 2.33 µM (inactive) | 3.85 µM (inactive) | 3.77 µM (inactive) | – | – | > 10 µM (inactive) | 2.78 µM (inactive) | –
16 | CC1(O)CCC(C(C)(C)O)CC1 (stereo not drawn) [TERPIN] | > 100 µM (inactive) | > 100 µM (inactive) | > 100 µM (inactive) | > 100 µM (inactive) | > 100 µM (inactive) | > 100 µM | > 100 µM (inactive) | > 100 µM (inactive) | > 100 µM (inactive) | > 100 µM (inactive) | > 100 µM (inactive) | > 100 µM (inactive) | > 100 µM (inactive) | > 100 µM (inactive) | – | > 100 µM (inactive) | > 100 µM (inactive) | > 100 µM (inactive) | > 100 µM (inactive) | –
